Source: JP2009132645A, “アシル化ハイドロキノン配糖体及びそれを含有する皮膚外用剤” (Pola Chemical Industries Inc, priority 2007, dated 2009)

Test: Cytotoxicity in normal human epidermal melanocytes (trypan blue)
Assay type: cell-based
Settings: 2 days culture, 0.5% trypan blue, concentration not given, read-out: cytotoxicity (judgement by cell death rate)

**Q.** For `CCCCCCCCCCC(=O)OC[C@H]1O[C@@H](Oc2ccc(O)cc2)[C@H](O)[C@@H](O)[C@@H]1O` [比較化合物1, 6−O−ウンデカノイルアルブチン], which cytotoxicity at 48 h is on record?
**A.** > 50%
